Like-named read-outs stand apart in the source and are kept apart here.
Experiments:
muscarinic M2 receptor = target: T1, muscarinic M2 receptor (Cavia porcellus, UniProt H0VRN8); experiment: Muscarinic M2 antagonistic action in isolated guinea pig left atrium (carbachol-induced relaxation, Schild method); assay type: cell-based; settings: compound applied 30 minutes before carbachol
T1 construct: left atria were excised to prepare tissue specimens; from tissue; host or cells: isolated guinea pig left atrium (male Hartley)
T1 sequence (H0VRN8 1-466): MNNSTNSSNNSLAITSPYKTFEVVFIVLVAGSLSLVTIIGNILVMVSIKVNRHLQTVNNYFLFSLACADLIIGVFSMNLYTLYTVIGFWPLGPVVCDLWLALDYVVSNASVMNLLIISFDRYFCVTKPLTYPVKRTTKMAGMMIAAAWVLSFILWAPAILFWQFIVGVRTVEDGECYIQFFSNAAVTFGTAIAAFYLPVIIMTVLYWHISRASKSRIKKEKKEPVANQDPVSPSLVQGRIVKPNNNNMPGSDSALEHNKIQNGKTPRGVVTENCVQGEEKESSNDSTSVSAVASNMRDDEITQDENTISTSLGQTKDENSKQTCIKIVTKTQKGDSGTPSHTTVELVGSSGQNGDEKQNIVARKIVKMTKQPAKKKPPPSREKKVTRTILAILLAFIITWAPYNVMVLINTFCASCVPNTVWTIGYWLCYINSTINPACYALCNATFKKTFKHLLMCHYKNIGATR
Description: Muscarinic M2 Antagonistic Action in Isolated Guinea Pig Left Atrium […] Each tissue specimen was kept warm at 37° C., suspended with a resting tension of 0.5 g in a 5-mL Magnus bath filled with a Krebs carbonate buffer bubbled with 95% O2/5% CO2. Then, contraction evoked by field electrical stimulation (4 Hz, 2 msec, 1.5×threshold potential) was measured. After a stabilization period of 60 minutes, carbachol-induced relaxation was isometrically measured and recorded by the cumulative method from 10^−8 M with an interval of 90 seconds for one concentration in an equal ratio of 3. After the measurement, the tissue specimen was immediately washed, and left for 45 minutes as a stabilization period before the next observation. The tissue specimen of which EC50 for the carbachol-induced relaxation was stabilized was considered as a control. Each test compound was applied 30 minutes before the addition of carbachol. The affinity (pA2) of the test compound was obtained in the same manner as in the case of the trachea.

muscarinic M3 receptor = target: T2, muscarinic M3 receptor (Cavia porcellus, UniProt H0W1Z3); experiment: Muscarinic M3 antagonistic action in isolated guinea pig trachea (carbachol-induced contraction, Schild method); assay type: cell-based; settings: compound applied 15 minutes before carbachol
T2 construct: trachea was excised, and cut at every two tracheal cartilages to prepare tissue specimens; from tissue; host or cells: isolated guinea pig trachea (male Hartley)
T2 sequence (H0W1Z3 1-590): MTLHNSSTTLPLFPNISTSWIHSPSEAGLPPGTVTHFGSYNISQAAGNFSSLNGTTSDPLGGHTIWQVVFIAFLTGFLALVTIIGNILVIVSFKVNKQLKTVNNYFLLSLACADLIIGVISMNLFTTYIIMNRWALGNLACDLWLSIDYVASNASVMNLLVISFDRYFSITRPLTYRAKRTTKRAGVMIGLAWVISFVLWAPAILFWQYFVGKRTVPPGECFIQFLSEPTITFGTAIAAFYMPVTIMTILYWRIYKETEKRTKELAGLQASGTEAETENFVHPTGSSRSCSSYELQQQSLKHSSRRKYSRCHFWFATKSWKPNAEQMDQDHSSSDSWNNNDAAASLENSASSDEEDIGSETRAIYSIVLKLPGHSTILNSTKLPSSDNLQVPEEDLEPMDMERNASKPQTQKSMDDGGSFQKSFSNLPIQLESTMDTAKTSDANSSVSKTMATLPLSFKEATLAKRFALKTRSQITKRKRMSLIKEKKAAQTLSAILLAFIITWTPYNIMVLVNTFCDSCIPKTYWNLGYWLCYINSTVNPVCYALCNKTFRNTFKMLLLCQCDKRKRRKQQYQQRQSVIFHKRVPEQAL
Description: Muscarinic M3 Antagonistic Action in Isolated Guinea Pig Trachea
Male Hartley guinea pigs (350 to 600 g) were sacrificed by bleeding, and trachea was excised, and cut at every two tracheal cartilages to prepare tissue specimens. Each tissue specimen was kept warm at 37° C., suspended with a resting tension of 1 g in a 5-mL Magnus bath filled with a Krebs carbonate buffer containing indomethacin (1 μM) bubbled with 95% O2/5% CO2, and left for 60 minutes as a stabilization period. […] After the measurement, the tissue specimen was immediately washed, and left for 60 minutes as a stabilization period before the next contraction reaction, and the tissue specimen of which EC50 for the carbachol-induced contraction reaction was stabilized was considered as a control. Each test compound was applied 15 minutes before the addition of carbachol. The affinity (pA2) of the test compound was obtained by the Schild method (Arunlakshana, O. and Schild, H. O., Brit. J. Pharmacol., 1959, 14, 48-58).

[1] = isolated guinea pig left atrium
[2] = pA2 Left atrium M2, isolated guinea pig left atrium
[3] = pA2 Trachea M3, isolated guinea pig trachea
[4] = isolated guinea pig left atrium, read-out: pA2 Left atrium M2 (converted)
[5] = isolated guinea pig trachea, read-out: pA2 Trachea M3 (converted)

| Compound | Kb (muscarinic M2 receptor; [2]) [nM] | Kb (muscarinic M3 receptor; [3]) [nM] | further results |
| --- | --- | --- | --- |
| 3-(trans-3-(Carbamoyl(diphenyl)methyl)cyclopentyl)-1-cyclopentylmethyl-2-methyl-3H-imidazol-1-ium bromide [Example 68] |  |  | pA2 Left atrium M2 (muscarinic M2 receptor; [1]): 7.4; pA2 Trachea M3 (muscarinic M3 receptor; isolated guinea pig trachea): 9.4 |
| C[n+]1ccn([C@H]2CC[C@@H](C(C(N)=O)(c3ccccc3)c3ccccc3)C2)c1 (relative stereo) [Example 5, 3-(cis-3-(Carbamoyl(diphenyl)methyl)cyclopentyl)-1-methyl-3H-imidazol-1-ium iodide] | 31.6 | 2.51 |  |
| CCOCC[n+]1ccn([C@H]2CC[C@@H](C(C(N)=O)(c3ccccc3)c3ccccc3)C2)c1C (relative stereo) [Example 25, 3-(cis-3-(Carbamoyl(diphenyl)methyl)cyclopentyl)-1-(2-ethoxy-ethyl)-2-methyl-3H-imidazol-1-ium bromide] | 25.1 | 1.58 |  |
| CC(=O)OCC[n+]1ccn([C@H]2CC[C@@H](C(C(N)=O)(c3ccccc3)c3ccccc3)C2)c1C (relative stereo) [Example 51, 3-(cis-3-(Carbamoyl(diphenyl)methyl)cyclopentyl)-1-(2-acetoxy-ethyl)-2-methyl-3H-imidazol-1-ium bromide] | 31.6 | 1 |  |
| Cc1n([C@H]2CC[C@@H](C(C(N)=O)(c3ccccc3)c3ccccc3)C2)cc[n+]1CCCO (relative stereo) [Example 54, 3-(cis-3-(Carbamoyl(diphenyl)methyl)cyclopentyl)-1-(3-hydroxy-propyl)-2-methyl-3H-imidazol-1-ium bromide] | 31.6 | 1 |  |
| Cc1n([C@H]2CC[C@H](C(C(N)=O)(c3ccccc3)c3ccccc3)C2)cc[n+]1C (relative stereo) [Example 66, 3-(trans-3-(Carbamoyl(diphenyl)methyl)cyclopentyl)-1,2-dimethyl-3H-imidazol-1-ium iodide] | 39.8 | 1.26 |  |
| COCC[n+]1ccn([C@H]2CC[C@H](C(C(N)=O)(c3ccccc3)c3ccccc3)C2)c1C (relative stereo) [Example 67, 3-(trans-3-(Carbamoyl(diphenyl)methyl)cyclopentyl)-1-(2-methoxyethyl)-2-methyl-3H-imidazol-1-ium bromide] | 79.4 | 1.26 |  |
| C[n+]1cn([C@H]2CC[C@@H](C(C(N)=O)(c3ccccc3)c3ccccc3)C2)cn1 (relative stereo) [Example 69, 4-(cis-3-(Carbamoyl(diphenyl)methyl)cyclopentyl)-1-methyl-4H-[1,2,4]triazol-1-ium iodide] | 25.1 | 0.794 |  |
| NC(=O)C(c1ccccc1)(c1ccccc1)[C@@H]1CC[C@H](n2c[n+](Cc3ccccc3)cn2)C1 (relative stereo) [Example 71, 4-Benzyl-1-(cis-3-(carbamoyl(diphenyl)methyl)cyclopentyl)-1H-[1,2,4]triazol-4-ium bromide] | 39.8 | 0.794 |  |
| COCC[n+]1cn([C@H]2CC[C@@H](C(C(N)=O)(c3ccccc3)c3ccccc3)C2)cn1 (relative stereo) [Example 72, 4-(cis-3-(Carbamoyl(diphenyl)methyl)cyclopentyl)-1-(2-methoxyethyl)-4H-[1,2,4]triazol-1-ium bromide] | 31.6 | 0.794 |  |
| Cc1n([C@H]2CC[C@H](C(C(N)=O)(c3ccccc3)c3ccccc3)C2)cc[n+]1CCC(C)C (relative stereo) [Example 73, 3-(trans-3-(Carbamoyl(diphenyl)methyl)cyclopentyl)-2-methyl-1-(3-methylbutyl)-3H-imidazol-1-ium bromide] | 6.31 | 0.631 |  |
| CC(=O)OCCC[n+]1ccn([C@H]2CC[C@H](C(C(N)=O)(c3ccccc3)c3ccccc3)C2)c1C (relative stereo) [Example 75, 1-(3-Acetoxypropyl)-3-(trans-3-(carbamoyl(diphenyl)methyl)cyclopentyl)-2-methyl-3H-imidazol-1-ium bromide] | 158 | 0.501 |  |
| CC(=O)C[n+]1ccn([C@H]2CC[C@H](C(C(N)=O)(c3ccccc3)c3ccccc3)C2)c1C (relative stereo) [Example 86, 3-(trans-3-(Carbamoyl(diphenyl)methyl)cyclopentyl)-2-methyl-1-(2-oxopropyl)-3H-imidazol-1-ium bromide] | 1260 | 1.26 |  |
| Cc1n([C@H]2CC[C@H](C(C#N)(c3ccccc3)c3ccccc3)C2)cc[n+]1Cc1ccccc1 (relative stereo) [Example 87, 1-Benzyl-3-(trans-3-(cyano(diphenyl)methyl)cyclopentyl)-2-methyl-3H-imidazol-1-ium bromide] | 50.1 | 1 |  |
| CC(=O)C[n+]1ccn([C@H]2CC[C@H](C(C#N)(c3ccccc3)c3ccccc3)C2)c1C (relative stereo) [Example 88, 3-(trans-3-(Cyano(diphenyl)methyl)cyclopentyl)-2-methyl-1-(2-oxopropyl)-3H-imidazol-1-ium bromide] | 251 | 1 |  |
| Cc1n([C@H]2CC[C@H](C(C(N)=O)(c3ccccc3)c3ccccc3)C2)cc[n+]1Cc1ccccc1 (single isomer, unassigned) [Example 97, 1-Benzyl-3-(trans-3-(carbamoyl(diphenyl)methyl)cyclopentyl)-2-methyl-3H-imidazol-1-ium bromide] | 3.98 | 0.1 |  |
| Cc1n([C@H]2CC[C@H](C(C(N)=O)(c3ccccc3)c3ccccc3)C2)cc[n+]1Cc1ccccc1 (single isomer, unassigned) [Example 98, 1-Benzyl-3-(trans-3-(carbamoyl(diphenyl)methyl)cyclopentyl)-2-methyl-3H-imidazol-1-ium bromide] | 15.8 | 0.398 |  |
| CN1[C@@H]2CC[C@H]1C[C@@H](OC(=O)C(CO)c1ccccc1)C2 (stereo partly shown) [Atropine, reference compound] | 2.51 |  |  |
| CC1=[N+](C)CCN1[C@@H]1CC[C@H](C(C(N)=O)(c2ccccc2)c2ccccc2)C1 [Example 57, 3-((1R,3S)-3-(Carbamoyl(diphenyl)methyl)cyclopentyl)-1,2-dimethyl-4,5-dihydro-3H-imidazol-1-ium iodide] | 25.1 | 1.26 |  |
| CC1=[N+](C)CCN1[C@H]1CC[C@@H](C(C(N)=O)(c2ccccc2)c2ccccc2)C1 [Example 58, 3-((1S,3R)-3-(Carbamoyl(diphenyl)methyl)cyclopentyl)-1,2-dimethyl-4,5-dihydro-3H-imidazol-1-ium iodide] | 79.4 | 3.16 |  |
| COCC[n+]1ccn([C@H]2CC[C@@H](C(C(N)=O)(c3ccccc3)c3ccccc3)C2)c1C [Example 76, 3-((1S,3R)-3-(Carbamoyl(diphenyl)methyl)cyclopentyl)-1-(2-methoxyethyl)-2-methyl-3H-imidazol-1-ium para-toluenesulfonate] |  |  | Kb (muscarinic M2 receptor; [4]): 200 nM; Kb (muscarinic M3 receptor; [5]): 1.26 nM |
| COCC[n+]1ccn([C@@H]2CC[C@H](C(C(N)=O)(c3ccccc3)c3ccccc3)C2)c1C [Example 77, 3-((1R,3S)-3-(Carbamoyl(diphenyl)methyl)cyclopentyl)-1-(2-methoxyethyl)-2-methyl-3H-imidazol-1-ium para-toluenesulfonate] |  |  | Kb (muscarinic M2 receptor; [4]): 6.31 nM; Kb (muscarinic M3 receptor; [5]): 0.251 nM |
| C=C(CC)[n+]1ccn([C@H]2CC[C@@H](C(C(N)=O)(c3ccccc3)c3ccccc3)C2)c1C.[Br-] [Example 78, 3-((1S,3R)-3-(Carbamoyl(diphenyl)methyl)cyclopentyl)-1-buten-2-yl-2-methyl-3H-imidazol-1-ium bromide] |  |  | pA2 Left atrium M2 (muscarinic M2 receptor; [1]): 7.9; pA2 Trachea M3 (muscarinic M3 receptor; isolated guinea pig trachea): 9.2 |
| Cc1n([C@H]2CC[C@@H](C(C(N)=O)(c3ccccc3)c3ccccc3)C2)cc[n+]1C(F)F [Example 81, 3-((1S,3R)-3-(Carbamoyl(diphenyl)methyl)cyclopentyl)-1-difluoromethyl-2-methyl-3H-imidazol-1-ium bromide] |  | 1 |  |

— patent publication US20100152261A1 (MITSUBISHI TANABE PHARMA CORPORATION, priority 2005, published 2010)
